Patent US6346544B2, “Desmethyl tocopherols for protecting cardiovascular tissue” (Oklahoma Medical Research Foundation, priority 2000, dated 2002)

Assays:
[1] = plasma concentrations of tocopherols and 5-NO2-γ-tocopherol in volunteers; type: in vivo, human; conditions: mean ± SEM
From the text: Smoking is recognized as a major contributing factor to heart disease and γ-T reportedly decreases more than α-T in smokers. Hypertension is also a strong risk factor for heart disease. […] Seven subjects indicated a chronic hypertensive condition. As outlined in Table I, γ-tocopherol tended to decrease in hypertensive subjects while nitration products tended to increase in both smokers and hypertensive subjects. This was the trend regardless of whether the tocopherol concentrations were normalized to plasma triglycerides (Table I).

[2] = tocopherol-depleted rats fed two weeks after iron-dextran; cited from earlier work
[3] = rat, in vivo, 30 days
Method: Rat pups were injected intraperitoneally (I.P.) with αT or γT in an olive oil vehicle every other day for 30 days beginning 2 days after birth; control animals received vehicle only. Olive oil was chosen as a vehicle because of the low tocopherol content in this particular vegetable oil. […] One half of each animal group was injected with a septic dose of LPS (2.5 mg/kg, I.P). After 24 H, animals were killed and organs collected. αKGDH was assayed in heart tissue and tocopherols were measured by HPLC-ECD/PDA.

C3H/10T1/2 fibroblasts = conditions: methylcholanthrene-treated C3H/10T1/2 fibroblasts; cited from earlier work
αKGDH [4] = assay: αKGDH protection against SIN-1 nitrative stress in isolated mitochondria in vitro; type: biochemical, rat
Method: FIG. 3 is a graph showing rat brain mitochondria exposed to 0.4 mM SIN-1 for 1 H after addition of tocopherol. (•)α-tocopherol; (▪)γ-tocopherol. The scale bars labeled [α]norm and [Y]norm indicate the normal endogenous quantities of α-tocopherol and γ-tocopherol, respectively, in human brain.
αKGDH is a rate-limiting enzyme of mitochondrial energy production which is diminished in conditions of vascular ischemia (53-58); augmentation of the enzyme with α-ketoglutarate has been found beneficial and α-ketoglutarate is now included as a component in cardioplegia fluid to improve recovery after heart surgery (59). We undertook to determine whether γT protects αKGDH against nitrative stress in vitro. Mitochondria were isolated from adult rat brain then sonicated briefly in the presence of either αT or γT, or an ethanol vehicle. Mitochondria were then exposed to SIN-1, which generates NO and superoxide simultaneously at a known rate (7). Combination of NO and superoxide yields ONOO^−. in situ (discussed above).

[5] = variously reported; cited from earlier work
[6] = 100 mg/kg/day, 10 days, cited from earlier work
[7] = human plasma γT relative to αT; type: in vivo
From the text: Chemistry of tocopherol reaction with oxidizing agents. γ-Tocopherol is a natural product (a desmethyl tocopherol) of plant origin, present in many vegetable oils, especially soybean oil (1-2). γ-Tocopherol is normally taken into the body through consumption of foodstuffs. Human plasma γT concentration is variously reported as 5-30% of αT (3). The γTαT ratio varies markedly among individuals; plasma γT/αT proportionalities may be as low as 0.2% and as high as 30% (inventors' observations). Both αT and γT are absorbed equally well by the gut, but γT is packaged into lipoproteins less effectively than αT (4). For this reason, αT supplementation decreases systemic γT concentration (3-4).
γ-Tocopherol in human biology and cardiovascular disease. Relative to αT, a dearth of epidemiological data exists for γT. Human plasma γT concentration is variously reported as between 5-30% that of αT (41). In platelet-poor plasma, we find that 7% is very close to the correct value in young healthy subjects. The γT/αT ratio varies markedly among individuals; we have observed plasma γT/αT proportionalities as low as 0.2% and as high as 30%. γT is now a major tocopherol in the US diet, due to the high intake of soybean and vegetable oils that are abundant sources of γT (40). Both αT and γT are absorbed equally well by the gut, but γT is packaged into lipoproteins less effectively than αT (39). For this reason, αT supplementation decreases systemic γT concentration (41-42). δ-Tocopherol, β-tocopherol and tocol (other demethylated tocopherol homologs) exist in human plasma at approximately 1:10 ratios relative to γT (41). Detailed demographic data regarding plasma and tissue levels of desmethylated tocopherols and their oxidation products have never been published. While extensive data has been collected on α-tocopherol as a possibly beneficial molecule in cardiovascular disease, very little data has been collected on γT.

platelets = assay: platelet aggregation in vitro (PRP, aggregometer); type: cell-based, human; conditions: for Platelet Aggregation (% maximum): 500 μM α-tocopherol or 50 μM γ-tocopherol, 1 H preincubation
Method: […] inhibits platelet aggregation in vitro and in vivo, apparently through antagonism of protein kinase C (PKC) (60-63). Concentrations of αT necessary to inhibit aggregation in vitro are on the order of 500 μM (60-63), or approximately 10-fold higher than achieved in vivo. The concentration difference between in vitro and in vivo efficacy has been rationalized on the basis of incomplete tocopherol incorporation into membranes during in vitro incubation (63). Nonetheless, subjects supplemented with oral αT have diminished platelet aggregation (63). We therefore sought to investigate the ability of γ-tocopherol to inhibit platelet aggregation. PRP was obtained from two volunteers. Platelets were stimulated to aggregate with ADP, thrombin receptor activating peptide (TRAP) or the PKC agonist phorbol myristyl acetate (PMA) and aggregation was measured using a 4-channel clinical aggregometer. Specific platelet samples were preincubated with vehicle, αT, γT or 5-NO2-γ-tocopherol for 1 H prior to stimulation. Tocopherol concentrations were set at 10-fold excess to average PRP levels based on the precedent of previous in vitro aggregation experiments that used αT as an inhibitor (60-63).

[8] = system: ECV304 human endothelial cells; conditions: 10 μM α-T, 10 μM γ-T or 5 μM of each; 19 hours preincubation; 5 mM SIN-1; 24 hours
Method: Cultured ECV304 human endothelial cells were exposed to SIN-1 in the presence of 10 μM α-T, 10 μM γ-T or 5 μM of each (FIG. 5). Tocopherols were incubated with the cells for 19 hours prior to addition of SIN-1. Viability was assayed 24 hours later using a standard tetrazolium (MTT) reduction assay.

αKGDH [9] = assay: heart αKGDH activity after tocopherol supplementation, with or without LPS challenge; type: in vivo, rat
Method: Rats were injected with 15 mg of tocopherol over the first 1 month of life; specific groups were then challenged with a septic dose of LPS and heart αKGDH activity was assayed 24 H later. *p<0.1 relative to vehicle; †p<0.05 relative to vehicle. N=5/group.
Rat pups were injected intraperitoneally (I.P.) with αT or γT in an olive oil vehicle every other day for 30 days beginning 2 days after birth; control animals received vehicle only. […] A total of 15 mg tocopherol was delivered to each animal over the 30 day period; animal weight at the end of the period was approximately 90 g for all three groups. One half of each animal group was injected with a septic dose of LPS (2.5 mg/kg, I.P). After 24 H, animals were killed and organs collected. αKGDH was assayed in heart tissue and tocopherols were measured by HPLC-ECD/PDA.

[10] = cited from earlier work
[11] = liposomes exposed to ONOO−; cited from earlier work
[12] = rat brain mitochondria, 400 μM SIN-1, one hour

For `Cc1c(C)c2c(c([N+](=O)[O-])c1O)CCC(C)(CCCC(C)CCCC(C)CCCC(C)C)O2` (stereo not drawn) [5-NO2-γ-tocopherol, 5-nitro-γ-tocopherol], the plasma concentration ([1]; hypertensives, N = 7) was 20.0 ± 3.7 ng/mL plasma, the “plasma concentration normalized to triglyceride” value (“plasma concentration normalized” below) ([1]; hypertensives, N = 7) was 34.9 ± 10.9 ng/mg triglyceride and the plasma concentration ([1]; population, N = 54) was 11.3 ± 1.6 ng/mL plasma. For the same compound, the “plasma concentration normalized” value ([1]; population, N = 54) was 14.0 ± 2.5 ng/mg triglyceride, the plasma concentration ([1]; smokers, N = 7) was 20.0 ± 3.3 ng/mL plasma and the “plasma concentration normalized” value ([1]; smokers, N = 7) was 23.5 ± 7.2 ng/mg triglyceride.

For `Cc1c(O)cc2c(c1C)O[C@](C)(CCC[C@H](C)CCC[C@H](C)CCCC(C)C)CC2` [γ-tocopherol], the “effectiveness at inhibiting systemic lipid oxidation relative to αT” value [2] is listed as “approximately 35%”, the “heart tissue tocopherol concentration, controls” value [3] is listed as 1.8±0.4 ng/mg protein and the plasma concentration ([1]; hypertensives, N = 7) is listed as 0.463 ± 0.165 μg/mL plasma. For the same compound, the “plasma concentration normalized” value ([1]; hypertensives, N = 7) was 0.606 ± 0.153 μg/mg triglyceride, the plasma concentration ([1]; population, N = 54) was 0.713 ± 0.067 μg/mL plasma and the “plasma concentration normalized” value ([1]; population, N = 54) was 0.813 ± 0.088 μg/mg triglyceride. The plasma concentration ([1]; smokers, N = 7) was 0.680 ± 0.153 μg/mL plasma, the “plasma concentration normalized” value ([1]; smokers, N = 7) was 0.810 ± 0.213 μg/mg triglyceride and the “effectiveness at inhibiting neoplastic transformation relative to αT” value (C3H/10T1/2 fibroblasts) was 4 fold. For the same compound, the “concentration offering as much αKGDH protection as 1-10 μM αT” value (αKGDH [4]; 400 μM SIN-1, one hour) was 50 to 100 nM, the “αKGDH protection in side-by-side comparison” value (αKGDH [4]; all concentrations tested) was “more protective than αT” and the “αKGDH protection relative to corresponding concentration of αT” value (αKGDH [4]; concentrations near 100 nM, 400 μM SIN-1) was “approximately 5 times”. The “maximal αKGDH protection relative to αT” value (αKGDH [4]; [12]) was “approximately 2.5 times”, the “tocopherol concentration of maximal αKGDH protection” value (αKGDH [4]; [12]) was 1 µM and the “human plasma γT concentration as % of αT” value [5] was 5-30%. For the same compound, the “increase of plasma level above baseline” value ([6]; own supplementation) was 6 fold, the “plasma γT concentration as % of the αT concentration” value ([6]; γT supplemented rats) was ≤ 10% and the “highest observed plasma γT/αT proportionality” value ([7]; inventors' observations) was 30%. For the same compound, the “lowest observed plasma γT/αT proportionality” value ([7]; inventors' observations) was 0.2%, the “plasma γT concentration as % of αT” value ([7]; platelet-poor plasma, young healthy subjects) was ~7% and the “Platelet Aggregation (% maximum)” value (platelets; ADP 20 μM, Subject 1) was 117 % maximum. The “Platelet Aggregation (% maximum)” value (platelets; ADP 20 μM, Subject 2) was 90 % maximum, the “Platelet Aggregation (% maximum)” value (platelets; PMA 200 nM, Subject 1) was 57 % maximum and the “Platelet Aggregation (% maximum)” value (platelets; PMA 200 nM, Subject 2) was 29 % maximum. For the same compound, the “Platelet Aggregation (% maximum)” value (platelets; TRAP 20 μM, Subject 1) was 73 % maximum, the “Platelet Aggregation (% maximum)” value (platelets; TRAP 20 μM, Subject 2) was 88 % maximum and the “ability to inhibit PKC-linked platelet aggregation” value (platelets; TRAP or PMA as agonist) was “similarly efficacious to αT”. The “effect on SIN-1 toxicity (MTT viability)” value [8] was “promoted viability somewhat”, the “heart αKGDH activity after LPS challenge, ranking among groups” value (αKGDH [9]; LPS 2.5 mg/kg I.P., 24 H) was “highest heart αKGDH activity” and the “increase of mean heart αKGDH activity” value (αKGDH [9]; animals not subjected to LPS stress, 15 mg tocopherol I.P. over 30 days) was 40%. The “delay/increase of time to occlusive thrombus” value ([10]; 100 mg/kg/day for 10 days, 29% FeCl3 patch) was 65%, the “inhibition of platelet aggregation kinetics, efficacy relative to αT supplementation” value ([10]; 100 mg/kg/day for 10 days) was 2 fold and the “potency relative to αT at inhibition of thrombogenic correlates, in reference to plasma tocopherol concentrations” value ([10]; rat, in vivo) was 20-30 times. For the same compound, the “superoxide dismutase activity in the aortas compared to αT treated group” value ([10]; rat, in vivo) was “increased significantly” and the “effectiveness at inhibiting lipid hydroperoxide formation relative to αT” value [11] was “twice as effective”.

For `Nc1c[n+](N2CCOCC2)no1` [SIN-1, reference compound], the “diminution of αKGDH activity” value (αKGDH [4]; 400 μM SIN-1, one hour, rat brain mitochondria) was “approximately 50%”.
